In article PMC11788587, “Validating Low‐Dose Iohexol as a Marker for Glomerular Filtration Rate by In Vitro and In Vivo Studies” (Clinical and Translational Science, 2025):
Where two headings read alike, the source gives them in different places.

How the values were obtained:
[1] = target: T1, hMATE2K (Homo sapiens, UniProt Q86VL8); experiment: Substrate assessment: iohexol uptake in 293 cells expressing hMATE2K vs control; type: in vitro ADME; details: 10 μM iohexol, median (95% CI)
T1 construct: expressed in transfected cells; host or cells: HEK-293 (293) cells, pEBTetD plasmid, doxycycline-induced
Text: (§1) We characterized the inhibitory potential of iohexol on major drug transporters recommended by regulatory agencies, which were previously assessed in a clinical transporter phenotyping cocktail study. These transporters include hOAT1, hOAT3, hOCT1, hOCT2, hMATE1, hMATE2K, human organic anion transporter polypeptides (hOATP)1B1, hOATP1B3, and human multidrug resistance protein (hMDR)1. Additionally, we investigated whether iohexol is a substrate for any of the renal transporters among these, including hOAT1/3, hOCT1/2, and hMATE1/2K. Cell‐based uptake assays were used to assess the activities of hOAT1/3, hOCT1/2, hMATE1/2K, and hOATP1B1/1B3. Inside‐out membrane vesicle uptake assays were used to evaluate the activity of hMDR1.
(§2) For substrate assessments, iohexol was incubated with stably transfected HEK‐293 cells expressing one of the following transporters: hOAT1, hOAT3, hOCT1, hOCT2, hMATE1, or hMATE2K, as well as with control cells lacking transporter expression. Stably transfected cell lines containing pEBTetD plasmids with wild‐type human transporter cDNAs were generated as previously described. Transporter expression was induced by adding 1 μg/mL doxycycline to the growth medium for at least 20 h. Iohexol would be considered a substrate for these transporters if: (1) the ratio of iohexol uptake in cells expressing the transporter to that in control cells was ≥ 2, and (2) a known inhibitor of the transporter reduced iohexol uptake to ≤ 50% at concentrations ≥ 10 times its inhibition constant or half‐maximal inhibitory concentration.
(§3) Uptake assays were performed using stably transfected 293 cells, with or without the expression of one of the following transporters: hOAT1, hOAT3, hOCT1, hOCT2, hMATE1, or hMATE2K, as previously described.^1
(§4) For the substrate assessment, cells were incubated with 10 µM iohexol for 10 minutes and 30 minutes for each transporter. Inhibition assays were performed using specific standard substrates for each transporter: 10 µM para-aminohippuric acid (PAH) for hOAT1, 3 µM estrone-3-sulfate (E3S) for hOAT3, 50 µM metformin for hOCT1, 5 µM metformin for hOCT2, and 3 µM 1-methyl-4-phenylpyridinium (MPP+) for hMATE1 and hMATE2K. […]
(§5) R version 4.2.1 (R Foundation for Statistical Computing, Vienna, Austria) was used for statistical evaluations and data visualization. The data analysis approach for the in vitro study was detailed by Hsin CH et al..^1 In brief, for transport assays, the initial uptake rate was calculated by normalizing the substrate concentration to both the protein concentration and the incubation time for each dish or well. The transporter-mediated uptake rate (net uptake) was determined by performing an element-wise subtraction of uptake rates from different conditions. […]

[2] = target: T2, hOCT2 (Homo sapiens, UniProt O15244); experiment: Substrate assessment: iohexol uptake in 293 cells expressing hOCT2 vs control; type: in vitro ADME; details: 10 μM iohexol, median (95% CI)
T2 construct: expressed in transfected cells; host or cells: HEK-293 (293) cells, pEBTetD plasmid, doxycycline-induced
T2 sequence (O15244 1-555): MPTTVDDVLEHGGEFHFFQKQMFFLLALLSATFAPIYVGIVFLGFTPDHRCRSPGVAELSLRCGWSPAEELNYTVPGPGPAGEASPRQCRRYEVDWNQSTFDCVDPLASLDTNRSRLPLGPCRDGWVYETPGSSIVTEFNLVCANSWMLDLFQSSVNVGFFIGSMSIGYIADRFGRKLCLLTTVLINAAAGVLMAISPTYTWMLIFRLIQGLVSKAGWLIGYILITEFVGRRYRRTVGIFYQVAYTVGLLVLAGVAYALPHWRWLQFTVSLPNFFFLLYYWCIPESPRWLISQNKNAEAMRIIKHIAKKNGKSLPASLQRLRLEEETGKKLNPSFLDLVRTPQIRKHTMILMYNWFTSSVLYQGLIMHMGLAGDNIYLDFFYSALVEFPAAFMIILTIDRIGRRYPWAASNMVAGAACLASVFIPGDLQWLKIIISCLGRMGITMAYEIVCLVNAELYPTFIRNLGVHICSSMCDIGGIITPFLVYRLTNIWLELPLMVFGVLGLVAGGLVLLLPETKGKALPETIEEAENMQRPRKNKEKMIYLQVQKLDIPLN
Text: as §1, §2, §3, §4, §5

[3] = target: T2, hOCT2; experiment: Inhibition of hOCT2-mediated metformin uptake, stably transfected 293 cells; type: cell-based; details: substrate 5 µM metformin, median (95% CI)
Text: as §1
To determine the maximal inhibitory potential of iohexol, intracellular accumulation of a standard substrate was measured with and without the clinically relevant highest concentrations of iohexol. Control inhibitors were tested in each experiment.
In all subsequent in vitro studies, control experiments were conducted to validate the results. These included positive controls for substrates and inhibitors, as well as cells either without transporter expression or transfected with an empty vector, and control vesicles. Each condition, including cells or vesicles with the transporter and their respective controls, was analyzed in at least three replicates. For detailed information on materials, methods, and data analysis techniques used, refer to the Supporting Information. […]
as §5

[4] = Clinical trial in healthy volunteers, noncompartmental analysis of plasma and urine; type: in vivo, human; details: for CL (plasma clearance, dose/AUC) / Ae0‐t (cumulative urinary excretion of unchanged iohexol) / Rmax (maximum observed excretion rate) / Vd / half-life / dose excreted / AUC: fasting, geomean (geoSD); for CL (plasma clearance, dose/AUC) / Vd / half-life / AUC: n=12, plasma; for Vd / half-life / dose excreted / AUC: human, iv; for Vd: read-out: Vz; for half-life: read-out: t1/2,λz (converted); for dose excreted: read-out: Recovery (percentage of dose recovered in urine)
[5] = Reference: 3235 mg i.v. bolus, urine, n=10
[6] = Test: 259 mg i.v. bolus, urine, n=10

T1 sequence (Q86VL8 1-566 isoform Q86VL8-3): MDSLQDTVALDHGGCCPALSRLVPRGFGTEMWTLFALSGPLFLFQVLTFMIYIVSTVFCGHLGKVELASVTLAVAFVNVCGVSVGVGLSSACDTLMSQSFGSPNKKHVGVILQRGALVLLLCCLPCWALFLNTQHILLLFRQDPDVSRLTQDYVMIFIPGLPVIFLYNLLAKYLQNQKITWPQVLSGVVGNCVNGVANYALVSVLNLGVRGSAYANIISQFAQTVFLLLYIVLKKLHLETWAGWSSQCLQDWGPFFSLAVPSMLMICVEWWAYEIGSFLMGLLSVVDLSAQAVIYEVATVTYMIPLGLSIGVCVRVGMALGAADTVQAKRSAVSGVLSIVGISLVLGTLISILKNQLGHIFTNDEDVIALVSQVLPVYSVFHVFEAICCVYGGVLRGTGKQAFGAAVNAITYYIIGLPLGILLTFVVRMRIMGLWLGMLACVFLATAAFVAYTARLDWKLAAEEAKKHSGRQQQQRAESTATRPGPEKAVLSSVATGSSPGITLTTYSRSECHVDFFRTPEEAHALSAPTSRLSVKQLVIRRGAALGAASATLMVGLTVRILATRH

Differences in intracellular accumulation (expression on minus off) ([1]; 10 minutes): -0.36 (-1.1 to 0.24) pmol/mg protein | Uptake ratio (transporter-expressing vs non-expressing cells) ([1]; 10 minutes): 0.95 (0.81 to 1.1) | Differences in intracellular accumulation (expression on minus off) ([1]; 30 minutes): 0.62 (-0.38 to 1.5) pmol/mg protein | Uptake ratio (transporter-expressing vs non-expressing cells) ([1]; 30 minutes): 1.1 (0.93 to 1.4) | Differences in intracellular accumulation (expression on minus off) ([2]; 10 minutes): 1.3 (0.007 to 2.6) pmol/mg protein | Uptake ratio (transporter-expressing vs non-expressing cells) ([2]; 10 minutes): 1.1 (1 to 1.2) | Differences in intracellular accumulation (expression on minus off) ([2]; 30 minutes): 1.5 (-1.4 to 2.9) pmol/mg protein | Uptake ratio (transporter-expressing vs non-expressing cells) ([2]; 30 minutes): 1.1 (0.9 to 1.3) | Inhibitory effect (% reduction of specific activity) ([3]; 20 mM iohexol): no notable inhibitory effects | inhibition at 1000 µM ([3]; HEK293, 1 mM iohexol, read-out: Inhibitory effect (% reduction of specific activity)): -13% | inhibition at 20000 µM ([3]; HEK293, 20 mM iohexol, read-out: Inhibitory effect (% reduction of specific activity)): -23% | T/R ratio (90% CIs) of urinary recovery ([4]; 259 mg test vs 3235 mg reference, urine, n=10): 1.06 (0.960–1.17) | CL (plasma clearance, dose/AUC) ([4]; Reference: 3235 mg i.v. bolus): 5.43 (1.19) L/h | Ae0‐t (cumulative urinary excretion of unchanged iohexol) [4, 5]: 3364 (1.14) mg | Rmax (maximum observed excretion rate) [4, 5]: 951 (1.12) mg/h | CL (plasma clearance, dose/AUC) ([4]; Test: 259 mg i.v. bolus): 5.46 (1.15) L/h | Ae0‐t (cumulative urinary excretion of unchanged iohexol) [4, 6]: 273 (1.09) mg | Rmax (maximum observed excretion rate) [4, 6]: 73.7 (1.27) mg/h | Vd ([4]; Reference: 3235 mg i.v. bolus): 32.4 L | half-life ([4]; Reference: 3235 mg i.v. bolus): 4.14 h | dose excreted [4, 5]: 103% | Vd ([4]; Test: 259 mg i.v. bolus): 26.1 L | half-life ([4]; Test: 259 mg i.v. bolus): 3.32 h | dose excreted [4, 6]: 106% | AUC ([4]; 259 mg, Test: 259 mg i.v. bolus, read-out: AUC0‐t): 46.5 µg·h/mL | AUC ([4]; 259 mg, Test: 259 mg i.v. bolus, read-out: AUC0‐∞): 46.7 µg·h/mL | AUC ([4]; 3235 mg, Reference: 3235 mg i.v. bolus, read-out: AUC0‐t): 598 µg·h/mL | AUC ([4]; 3235 mg, Reference: 3235 mg i.v. bolus, read-out: AUC0‐∞): 600 µg·h/mL | CVintra of CL ([4]; intraindividual coefficient of variation, test vs reference): 5.29%
SMILES: CC(=O)N(CC(O)CO)c1c(I)c(C(=O)NCC(O)CO)c(I)c(C(=O)NCC(O)CO)c1I (centres unmarked) [iohexol]
